Data on 19 molecules can be found in patent US7625948B2, “Ester compound and medicinal use thereof” (Japan Tobacco Inc., priority 2002, dated 2009).

For orientation: pIC50 means the IC50 on a negative log10 scale, so that one unit is a factor of ten.

SMILES strings stand for the structures. pIC50: −log10 of the molar value.

The experiment concerns HepG2 cells. The experiment can be described thus: Test Example 2: inhibition of apolipoprotein B secretion from HepG2 cells, ELISA (also used for metabolites in Test Example 8). In kind it is cell-based. To be noted: Homo sapiens, 24 hours, apo B in supernatant by ELISA, read-out: Test Example 2 Inhibition of apo B secretion IC50. The gist of the method: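 HepG2 cells cultured 24 h, then exposed 24 h to compounds or metabolites in medium with 0.5% DMSO. Secreted apo B in supernatant quantified by sandwich ELISA (HRP, ABTS, 405 nm) against purified human apo B standard; % inhibition vs DMSO group, IC50 derived.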
On the technique in general: ELISA stands for enzyme-linked immunosorbent assay.
Turning to `CCNC(=O)C(COC(=O)Cc1ccc(NC(=O)c2ccccc2-c2ccc(C(F)(F)F)cc2)cc1)(C(=O)NCC)c1ccccc1` [Example 1, 4-[(4′-Trifluoromethylbiphenyl-2-carbonyl)amino]phenyl-acetic acid 2,2-bisethylcarbamoyl-2-phenylethyl ester], the pIC50 was 8.24. With `CCOC(=O)C(COC(=O)Cc1ccc(OC(=O)c2ccccc2-c2ccc(C(F)(F)F)cc2)cc1)(C(=O)OCC)c1ccccc1` [Example 1-2, 2-Phenyl-2-{2-[4-(4′-trifluoromethylbiphenyl-2-carbonyloxy)phenyl]acetoxymethyl}malonic acid diethyl ester] the figure was 6.07; with `CCNC(=O)C(COC(=O)Cc1ccc(NC(=O)c2ccccc2-c2ccc(C(F)(F)F)cc2)c(CC)c1)(C(=O)NCC)c1ccccc1` [Example 1-5, {3-Ethyl-4-[(4′-trifluoromethylbiphenyl-2-carbonyl)amino]phenyl}acetic acid 2,2-bisethylcarbamoyl-2-phenylethyl ester], 9.19; with `O=C(Cc1ccc(NC(=O)c2ccccc2-c2ccc(C(F)(F)F)cc2)cc1)OCC1(C(=O)NCC(F)(F)F)c2ccccc2-c2ccccc21` [Example 1-6], 8.26. With `O=C(Cc1ccc(NC(=O)c2ccccc2-c2ccc(C(F)(F)F)cc2)cc1)OCC(C(=O)NCC(F)(F)F)(C(=O)NCC(F)(F)F)c1ccccc1` [Example 1-12] the figure was 7.20; with `COC(=O)C(COC(=O)Cc1ccc(NC(=O)c2ccccc2-c2ccc(C(F)(F)F)cc2)cc1)(C(=O)OC)c1ccccc1` [Example 1-13], 6.77; with `CCCNC(=O)C(COC(=O)Cc1ccc(NC(=O)c2ccccc2-c2ccc(C(F)(F)F)cc2)cc1)(C(=O)NCCC)c1ccccc1` [Example 1-35], 8.16. With `CCNC(=O)C(COC(=O)Cc1ccc(NC(=O)c2ccccc2-c2ccc(C(F)(F)F)cc2)c(C(=O)N(C)C)c1)(C(=O)NCC)c1ccccc1` [Example 2, {3-Dimethylcarbamoyl-4-[(4′-trifluoromethylbiphenyl-2-carbonyl)amino]phenyl}acetic acid 2,2-bisethylcarbamoyl-2-phenylethyl ester] the figure was 8.82. For `CCCNC(=O)C(COC(=O)Cc1ccc(NC(=O)c2ccccc2-c2ccc(C(F)(F)F)cc2)c(C(=O)N(C)C)c1)(C(=O)NCCC)c1ccccc1` [Example 2-2], the pIC50 was 8.89. Regarding `CCNC(=O)C(COC(=O)Cc1ccc(NC(=O)c2ccccc2-c2ccc(C(F)(F)F)cc2)c(C(=O)NC)c1)(C(=O)NCC)c1ccccc1` [Example 2-3], the negative logarithm of the IC50 (pIC50) is 8.70.

For `CCNC(=O)C(CCOC(=O)Cc1ccc(NC(=O)c2ccccc2-c2ccc(C(F)(F)F)cc2)c(C(=O)N(C)C)c1)(C(=O)NCC)c1ccccc1` [Example 2-4], the pIC50 was 9.54. With `CCOC(=O)C(COC(=O)Cc1ccc(NC(=O)c2ccccc2-c2ccc(C(F)(F)F)cc2)c(C(=O)N(C)C)c1)(C(=O)OCC)c1ccccc1` [Example 2-5] the figure was 9.26.

For the molecule `CCNC(=O)C(CCCOC(=O)Cc1ccc(NC(=O)c2ccccc2-c2ccc(C(F)(F)F)cc2)c(C(=O)N(C)C)c1)(C(=O)NCC)c1ccccc1` [Example 2-7], the pIC50 was 9.25.

Take `CCOC(=O)C(COC(=O)Cc1ccc(NC(=O)c2ccccc2-c2ccc(C(F)(F)F)cc2)c(C(=O)N2CCCC2)c1)(C(=O)OCC)c1ccccc1` [Example 2-22]: the negative-log IC50 (pIC50) was 9.36. With `COC(=O)C(COC(=O)Cc1ccc(NC(=O)c2ccccc2-c2ccc(C(F)(F)F)cc2)c(C(=O)N(C)C)c1)(C(=O)OC)c1ccccc1` [Example 2-39] the figure was 9.12.

On to `CCNC(=O)C(COC(=O)Cc1ccc(NC(=O)c2ccccc2-c2ccc(C(F)(F)F)cc2)c(OC)c1)(C(=O)NCC)c1ccccc1` [Example 3-3], for which the pIC50 was 9.00. With `CCNC(=O)C(CCOC(=O)Cc1ccc(NC(=O)c2ccccc2-c2ccc(C(F)(F)F)cc2)c(OC)c1)(C(=O)NCC)c1ccccc1` [Example 3-6] the figure was 9.20; with `CCNC(=O)C(CCOC(=O)Cc1ccc(NC(=O)c2ccccc2-c2ccc(C(F)(F)F)cc2)c(OCC)c1)(C(=O)NCC)c1ccccc1` [Example 3-8], 9.42; with `CCNC(=O)C(COC(=O)Cc1ccc(NC(=O)c2ccccc2-c2ccc(C(F)(F)F)cc2)c(OC(C)C)c1)(C(=O)NCC)c1ccccc1` [Example 3-10], 9.51.
